Assay type in all cases: physicochemical
Data set [1] in a line: Visual assessment score (clarity of gel in 1 cm cuvette). The conditions noted are these: for Clarity Visual (appearance): 9% REF4 plus 1% of the named material in 60:40 hydrogenated polydecene:DC245; for Clarity Visual (assessment score): 9% REF4 plus 1% of the named material, scale −12 to 8; for Visual: gel in 60:40 w/w Silkflo 364:DC245, score scale −12 to 8. An excerpt:
A gel contained within a 1 cm thick cuvette was placed directly on to a sheet of white paper on which 21 sets of figures where printed in black. The size and thickness of the figures varied systematically and were numbered from −12 (the largest, thickest set) through 0 to 8 (the smallest thinnest set) The score given to each gel was the highest numbered set which could be read clearly through the gel, the higher the number, the higher the clarity.

The nature of data set [2]: Light transmission at 580 nm (% T). The conditions noted are these: 9% REF4 plus 1% of the named material; 580 nm. The protocol:
The translucency of a composition may be measured by placing a sample of standardised thickness in the light path of a spectrophotometer and measuring transmittance, as a percentage of light transmitted in the absence of the gel.
This test was carried out using a dual-beam spectrophotometer. The sample of composition was poured hot into a 4.5 ml cuvette made of poly(methyl-methacrylate) (PMMA) and allowed to cool to an ambient temperature of 20-25° C. Such a cuvette gives a 1 cm thickness of composition. […] A transmittence measured at any temperature in the range from 20-25° C. is usually adequately accurate, but measurement is made at 22° C. if more precision is required.

A short description of data set [3]: Gelling of water-immiscible cosmetic liquids in 96 well glass micro-titre plate. Set-up: key: gel; g4: gel after overnight (18 hrs) storage at 4° C.; g22: gel after overnight (18 hrs) storage at 22° C.; sg: soft gel; sg22: soft gel after overnight (18 hrs) storage at 22° C.; solution; *: the test at 4° C. was not carried out. Conditions: for gelling of ISA: 150° C. 2.5 hours, cooled to ambient. The protocol:
In this Example, various samples of esterified cellobiose prepared as in Example 1 or 2 above, were used to gel water-immiscible cosmetic liquids, in accordance with the procedure given below, in which a large number of gels can be prepared simultaneously.
The samples were tested in a 96 well (8×12 rows) glass micro-titre plate. […] About 0.01 or 0.02 g of each esterified cellobiose material was placed into 8 consecutive wells in a single row, so that each well contained approximately 5% or 10% of the cellobiose ester. The balance in each well comprised the cosmetic liquid by addition of approximately 0.2 g of the respective liquid to each cell. A glass lid was placed on top of the plate. The plate was carefully placed in a thermostatically controlled fan-assisted oven set at 150° C. for 2.5 hours. The plate was removed from the oven and allowed to cool naturally to ambient laboratory temperature. The contents of the wells were assessed at the end of the cooling period, by visual inspection and by poking the contents of each well with a micro-spatula. The plates were stored at […] for 18 hours and the contents inspected, and further stored for 18 hours at 4° C. and inspected for a third time. The results obtained in the tests are summarised in Table 5 below, in which the legend is as follows: […]

Data set [4] in a line: Stability testing of gels: crystal growth visible by eye on storage at 37° C. The procedure: Gels were made up using 10% structurant in a 60:40 mixture of Hydrogenated Polyisobutene (Panalene L14E):DC245. The gels, in sealed glass bottles, were left to stand for 18 hrs at room temperature, after which they were transferred to an oven thermostatically controlled to 37° C. Samples were checked periodically for signs of crystal growth visible by eye. REF1 is cellobiose octanonanoate.
Gels were made up and tested in accordance with the procedure in Example 6, as such or modified by employing a weight ratio of 9% of REF1 and 1% of an additional structurant as specified in Table 13 below.
The test procedure of Example 9 was repeated, but using ACB structurant REF2 alone as the structurant or to which a CHME structurant was added.

The mark [5] stands for this setting: 5% cellobiose ester in Fluid AP.
Setting [6] is: 5% cellobiose ester in Mineral oil.
The mark [7] stands for this setting: 5% cellobiose ester in Polydecene.
The mark [8] stands for this setting: 10% cellobiose ester in Fluid AP.
Where [9] appears, read: 10% cellobiose ester in Mineral oil.
[10] abbreviates: 10% cellobiose ester in Polydecene.

The results in this text go back to patent US6974804B2, “Esters” (Unilever Home & Personal Care USA, division of Conopco, Inc., priority 2000, dated 2005).

Take `CCCCCCCCCC(=O)OCC1OC(O)C(OC(=O)CCCCCCCCC)C(OC(=O)CCCCCCCCC)C1OC1OC(COC(=O)CCCCCCCCC)C(OC(=O)CCCCCCCCC)C(OC(=O)CCCCCCCCC)C1OC(=O)CCCCCCCCC` (mixture of isomers) [REF 6, reference compound]: in data set [1], the “Clarity Visual (appearance)” value is listed as “opaque” and the “Clarity Visual (assessment score)” value is less than −12. Also, the “Clarity % T” value in data set [2] is on record as 0.8%.

On to `CCCCCCCCCC(=O)OCC1OC(OC2C(COC(=O)CCCCCCCCC)OC(OC(=O)c3ccccc3)C(OC(=O)CCCCCCCCC)C2OC(=O)CCCCCCCCC)C(OC(=O)CCCCCCCCC)C(OC(=O)CCCCCCCCC)C1OC(=O)CCCCCCCCC` (mixture of isomers) [Ex 2.6], for which, in data set [1], the “Clarity Visual (appearance)” value was “translucent” and the “Clarity Visual (assessment score)” value is −8. The “Clarity % T” value in data set [2] stood at 4.5%.

With “cellobiose heptanonanoate monocyclohexanoate [Ex 1.13]”, in data set [1], the Visual amounted to 6.

In the case of “cellobiose heptanonanoate monocyclohexanoate [Ex 3.1]”, the Visual in data set [1] is on record as 3.

As to “cellobiose heptanonanoate monocyclohexanoate [Ex 1.14]”, the “gelling of DC556” value in data set [3] (5% cellobiose ester in DC556) and in data set [3] (10% cellobiose ester in DC556) was “gel” in each case. Moreover, the “gelling of Fluid AP” value in data set [3] (setting [5]) and in data set [3] (setting [8]) was “gel” throughout. In addition, the “gelling of IPM” value is recorded as “sol” in data set [3] (5% cellobiose ester in IPM) and “g4” in data set [3] (10% cellobiose ester in IPM). In addition, the “gelling of ISA” value in data set [3] (5% cellobiose ester in ISA) was “g22”; in data set [3] (10% cellobiose ester in ISA), “gel”. For the same molecule, the “gelling of Mineral oil” value in data set [3] (setting [6]) and in data set [3] (setting [9]) was “gel” each time. In addition, the “gelling of Polydecene” value in data set [3] (setting [7]) and in data set [3] (setting [10]) was “gel” each time. Further, in data set [1], the Visual amounted to 3.

Consider `CCCCCCCCC(=O)OCC1OC(OC2C(COC(=O)CCCCCCCC)OC(OC(=O)C3CCCC3)C(OC(=O)CCCCCCCC)C2OC(=O)CCCCCCCC)C(OC(=O)CCCCCCCC)C(OC(=O)CCCCCCCC)C1OC(=O)CCCCCCCC` (mixture of isomers) [Ex 3.5], for which the entries for the “gelling of DC556” value in data set [3] (5% cellobiose ester in DC556) and in data set [3] (10% cellobiose ester in DC556) were “g22” and “gel”, respectively. Besides, the “gelling of Fluid AP” value is reported as “sg22” in data set [3] (setting [5]) and “gel” in data set [3] (setting [8]). The entries for the “gelling of ISA” value in data set [3] (5% cellobiose ester in ISA) and in data set [3] (10% cellobiose ester in ISA) were “sg22” and “g22”, respectively. Also, the figures for the “gelling of Mineral oil” value in data set [3] (setting [6]) and in data set [3] (setting [9]) were “sol*” and “gel”, respectively. Besides, the “gelling of Polydecene” value in data set [3] (setting [7]) and in data set [3] (setting [10]) was “gel” in each case.

For the molecule `CCCCCCCCCC(=O)OCC1OC(OC2C(COC(=O)CCCCCCCCC)OC(OC(=O)c3ccccc3)C(OC(=O)CCCCCCCCC)C2OC(=O)CCCCCCCCC)C(OC(=O)CCCCCCCCC)C(OC(=O)CCCCCCCCC)C1OC(=O)CCCCCCCCC` (mixture of isomers) [Ex 2.2], the “gelling of DC556” value in data set [3] (5% cellobiose ester in DC556) and in data set [3] (10% cellobiose ester in DC556) was “gel” in each case. The “gelling of Fluid AP” value in data set [3] (setting [5]) and in data set [3] (setting [8]) was “gel” each time. Moreover, the “gelling of ISA” value in data set [3] (5% cellobiose ester in ISA) and in data set [3] (10% cellobiose ester in ISA) was “gel” in each case. Moreover, the “gelling of Mineral oil” value in data set [3] (setting [6]) and in data set [3] (setting [9]) was “gel” throughout. The “gelling of Polydecene” value in data set [3] (setting [7]) and in data set [3] (setting [10]) was “gel” throughout.

Consider `CCCCCCCCCCCCCCCC(=O)OC1OC(COC(=O)CCCCCCCC)C(OC2OC(COC(=O)CCCCCCCC)C(OC(=O)CCCCCCCC)C(OC(=O)CCCCCCCC)C2OC(=O)CCCCCCCC)C(OC(=O)CCCCCCCC)C1OC(=O)CCCCCCCC` (mixture of isomers) [Ex 1.8], for which the “gelling of DC556” value in data set [3] (5% cellobiose ester in DC556) and in data set [3] (10% cellobiose ester in DC556) was “gel” throughout. In addition, the “gelling of Fluid AP” value in data set [3] (setting [5]) and in data set [3] (setting [8]) was “gel” throughout. For the same molecule, the “gelling of ISA” value in data set [3] (5% cellobiose ester in ISA) and in data set [3] (10% cellobiose ester in ISA) was “g22” throughout. Besides, the “gelling of Mineral oil” value in data set [3] (setting [6]) and in data set [3] (setting [9]) was “g22” in each case. Moreover, the “gelling of Polydecene” value in data set [3] (setting [7]) and in data set [3] (setting [10]) was “gel” in each case. The Observations entry in data set [4] (9% of REF1 and 1% of additional structurant, after 15 days at 37° C.) is “No crystals after 15 days at 37 °C”.

As for “cellobiose heptanonanoate monocyclohexanoate [Ex 3.2]”, in data set [1], the Visual turned out to be 5.

Take “cellobiose heptanonanoate monocyclohexanoate [Ex 1.12]”: in data set [1], the Visual turned out to be 3.

With `CCCCCCCCC(=O)OCC1OC(OC2C(COC(=O)CCCCCCCC)OC(OC(=O)CC)C(OC(=O)CCCCCCCC)C2OC(=O)CCCCCCCC)C(OC(=O)CCCCCCCC)C(OC(=O)CCCCCCCC)C1OC(=O)CCCCCCCC` (mixture of isomers) [Ex 1.16], the “gelling of DC556” value in data set [3] (5% cellobiose ester in DC556) and in data set [3] (10% cellobiose ester in DC556) was “gel” each time. Also, the “gelling of Fluid AP” value in data set [3] (setting [5]) and in data set [3] (setting [8]) was “gel” each time. The “gelling of ISA” value in data set [3] (5% cellobiose ester in ISA) and in data set [3] (10% cellobiose ester in ISA) was “gel” throughout. Besides, the “gelling of Mineral oil” value in data set [3] (setting [6]) and in data set [3] (setting [9]) was “gel” each time. For the same molecule, the “gelling of Polydecene” value in data set [3] (setting [7]) and in data set [3] (setting [10]) was “gel” throughout.

As for `CCCCCCCCC(=O)OC[C@H]1O[C@@H](O[C@H]2[C@H](OC(=O)CCCCCCCC)[C@@H](OC(=O)CCCCCCCC)C(OC(=O)CCCCCCCC)O[C@@H]2COC(=O)CCCCCCCC)[C@H](OC(=O)CCCCCCCC)[C@@H](OC(=O)CCCCCCCC)[C@@H]1OC(=O)CCCCCCCC` (stereo partly shown) [REF 1, cellobiose octanonanoate], the Observation result in data set [4] (10% structurant in 60:40 Hydrogenated Polyisobutene (Panalene L14E):DC245, after 18 hrs at RT) is “Small crystals visible in gel after”; in data set [4] (10% structurant in 60:40 Hydrogenated Polyisobutene (Panalene L14E):DC245, after 18 hrs at RT, listed as REF1) it was “Small crystals visible in gel after 18”; in data set [4] (10% structurant in 60:40 Panalene L14E:DC245, after 6 hrs at 37° C.), “More and bigger crystals after 6 hrs”; in data set [4] (10% structurant in 60:40 Panalene L14E:DC245, after 6 hrs at 37° C., listed as REF1), “More and bigger crystals after 6 hrs at”; in data set [4] (10% structurant in 60:40 Panalene L14E:DC245, after 3 days at 37° C.), “Crystals throughout gel after 3 days”; in data set [4] (10% structurant in 60:40 Panalene L14E:DC245, after 3 days at 37° C., listed as REF1) it was 37° C.; Crystals throughout gel after 3 days.

On to `CCCCCCCCC(=O)OCC1OC(OC2C(COC(=O)CCCCCCCC)OC(OC(=O)C3CCCCC3)C(OC(=O)CCCCCCCC)C2OC(=O)CCCCCCCC)C(OC(=O)CCCCCCCC)C(OC(=O)CCCCCCCC)C1OC(=O)CCCCCCCC` (mixture of isomers) [Ex 1.11], for which the entries for the “gelling of DC556” value in data set [3] (5% cellobiose ester in DC556) and in data set [3] (10% cellobiose ester in DC556) were “g22” and “gel”, respectively. The “gelling of Fluid AP” value in data set [3] (setting [5]) and in data set [3] (setting [8]) was “gel” in each case. In addition, the “gelling of IPM” value in data set [3] (5% cellobiose ester in IPM) and in data set [3] (10% cellobiose ester in IPM) was “sol” in each case. Moreover, the “gelling of ISA” value in data set [3] (5% cellobiose ester in ISA) and in data set [3] (10% cellobiose ester in ISA) was “g22” each time. Moreover, the “gelling of Mineral oil” value in data set [3] (setting [6]) and in data set [3] (setting [9]) was “g22” in each case. Moreover, the “gelling of Polydecene” value in data set [3] (setting [7]) and in data set [3] (setting [10]) was “gel” each time.
